Results as given in patent US20080004290A1, “Anti-Cancer Agents” (THE UNIVERSITY OF QUEENSLAND, priority 2003, published 2008).
Read-outs that look alike come from different tables or passages of the source.

Experiments:
MM96L melanoma cells = experiment: Cell survival assay (clonogenic survival, SRB); type: cell-based, human; conditions: for SI (Selectivity Index = IC50 (NFF)/IC50 (MM96L)): NFF vs MM96L
Description: (§1) The cytotoxicities of the compounds of the invention were determined by clonogenic survival of human cancer cells (MM96L, melanoma) and human normal cells (NFF, neonatal foreskin fibroblasts). Cells were incubated with the compounds at various concentrations of compound (0.01-10 μg/mL) for 24 hours, washed, and then grown for a further four days in the absence of hydroxamic acid before determining cell survival by cell count. The final readout involved staining with sulforhodamine B (SRB), a cost-effective method amenable to automation and high throughput analysis. At the technical level, “cell sensitivity” is often inferred from short term (1-2 day) observations such as apoptosis, which may not be a satisfactory model of clonogenic survival.
(§2) Cell Lines and Culture Medium. All cell lines used in this study have been described previously (Parsons et al., 1986; Todaro et al., 1980; Glenn et al., 2004). All cell lines were cultured in 10% heat-inactivated foetal calf serum (CSL, Australia) in RPMI 1640 medium supplemented with 100 U/mL penicillin, 100 μg/mL streptomycin, and 3 mM HEPES at 5% CO2, 99% humidity at 37° C. Primary human fibroblasts were obtained from neonatal foreskins and cultured in the above medium. Routine mycoplasma tests were performed using Hoechst stain^i and were always negative.
(§3) Cell Survival Assay. Cells were plated into 96-well microtitre plates at 5×10^3 cells/well, and allowed to adhere overnight. Test compounds were added to culture medium at the indicated concentrations, and plates incubated in the above conditions for 24 hours. Following this incubation period, compounds and media were removed, and replaced with fresh culture medium. Cells were then grown for a further 72 hours before assay using sulforhodamine B (SRB; Sigma, St. Louis, Mo.) as previously described. Briefly, the culture medium was removed from the 96-well microtitre plates and the plates washed twice with phosphate buffered saline (PBS), before the cells were fixed with methylated spirits for 15 minutes. The plates were then rinsed with tap water and the fixed cells stained with 50 μL/well of SRB solution (0.4% sulforhodamine B (w/v) in 1% (v/v) acetic acid) over a period of 1 hour. The SRB solution was then removed from the wells and the plates rapidly washed two times with 1% (v/v) acetic acid. Protein bound dye was then solubilised with the addition of 100 μL of 10 mM unbuffered Tris, and incubated for 15 min at 25° C. Plates were then read at 564 nm on a VERSA max tunable microplate reader (Molecular Devices, Sunnyvale, Calif.).

[1] = tested on: NFF, neonatal foreskin fibroblasts; experiment: Cell survival assay (clonogenic survival, SRB), normal cells; type: cell-based, human; conditions: SRB
Description: as §1, §2, §3

[2] = Homo sapiens, MM96L, MM96L melanoma, 24 h with compound, further 72 h growth, SRB, read-out: IC50 (uM) MM96L
[3] = Homo sapiens, Fibroblast, NFF normal fibroblasts, 24 h with compound, further 72 h growth, read-out: IC50 (uM) NFF
[4] = Table 5, 24 hours with compound, further growth, SRB, read-out: IC50 MM96L
[5] = Table 5, Selectivity Index = IC50 (NFF)/IC50 (MM96L)
[6] = Table 5, 24 hours with compound, further growth, read-out: IC50 NFF
[7] = Table 8, 24 hours with compound, further growth, SRB, read-out: IC50 (μM) MM96
[8] = Table 8, IC50 (NFF)/IC50 (MM96L)
[9] = Table 8, 24 hours with compound, further growth, read-out: IC50 (μM) NFF
[10] = Homo sapiens, MM96L, 24 h, Table 6, 24 hours with compound, further growth, SRB, read-out: IC50 (μM) MM96L
[11] = Table 6, IC50 (NFF)/IC50 (MM96L)
[12] = Homo sapiens, Fibroblast, 24 h, Table 6, 24 hours with compound, further growth, read-out: IC50 (μM) NFF
[13] = MM96L melanoma, 24 h with compound, further 72 h growth, SRB, read-out: IC50 (uM) MM96L
[14] = NFF normal fibroblasts, 24 h with compound, further 72 h growth, read-out: IC50 (uM) NFF
[15] = Table 6, 24 hours with compound, further growth, SRB, read-out: IC50 (μM) MM96L
[16] = Table 6, 24 hours with compound, further growth, read-out: IC50 (μM) NFF
[17] = Homo sapiens, MM96L, most preferred compounds, exemplary examples, read-out: potency of IC50 against the MM96 melanoma cells

Compound: O=C(/C=C/c1c[nH]c2ccccc12)N[C@@H](CCCCCC(=O)NO)C(=O)NCc1ccccc1 [Example 167]
- IC50 (MM96L melanoma cells; [2]): 3.24 µM
- SI (Selectivity Index = IC50 (NFF)/IC50 (MM96L)) (MM96L melanoma cells): 3.2
- IC50 [1, 3]: 10.4 µM

Compound: O=C(CCCSC[C@H](NC(=O)C1CCCC1)C(=O)NCc1ccccc1)NO [Example 54]
- IC50 (MM96L melanoma cells; [4]): 21 ± 3 µM
- Selectivity (MM96L melanoma cells; [5]): >5
- IC50 [1, 6]: > 100 µM

Compound: CC(C)CNC(=O)c1ccc(CNC(=O)[C@H](CSCCCC(=O)NO)NC(=O)c2ccc(N(C)C)cc2)cc1 [Example 104]
- IC50 (MM96L melanoma cells; [7]): 1.62 µM
- Selectivity (MM96L melanoma cells; [8]): 5.0
- IC50 [1, 9]: 8.08 µM

Compound: CC(C)=CC(=O)N[C@@H](CSCCCC(=O)NO)C(=O)NCc1ccccc1 [Example 53]
- IC50 (MM96L melanoma cells; [4]): 11 ± 1 µM
- Selectivity (MM96L melanoma cells; [5]): 2.0
- IC50 [1, 6]: 22 ± 1 µM

Compound: CC(C)CCC(=O)N[C@@H](CSCCCC(=O)NO)C(=O)NCc1ccccc1 [Example 50]
- IC50 (MM96L melanoma cells; [4]): 7 ± 2 µM
- Selectivity (MM96L melanoma cells; [5]): 3.6
- IC50 [1, 6]: 25 ± 4 µM

Compound: O=C(CCCCC[C@H](NC(=O)OCc1ccccc1)C(=O)NCc1ccccc1)NO [Example 154]
- IC50 (MM96L melanoma cells; [2]): 1.52 µM
- SI (Selectivity Index = IC50 (NFF)/IC50 (MM96L)) (MM96L melanoma cells): 1
- IC50 [1, 3]: 1.52 µM

Compound: CN(C)c1ccc(C(=O)N[C@@H](CSCCCC(=O)NO)C(=O)NCc2cccnc2)cc1 [Example 81]
- IC50 (MM96L melanoma cells; [10]): 1.49 ± 0.09 µM
- Selectivity (MM96L melanoma cells; [11]): 5.9
- IC50 [1, 12]: 8.8 ± 0.5 µM

Compound: O=C(/C=C/c1ccccc1)N[C@@H](CCCCCC(=O)NO)C(=O)NCc1ccccc1 [Example 138]
- IC50 (MM96L melanoma cells; [13]): 0.252 µM
- SI (Selectivity Index = IC50 (NFF)/IC50 (MM96L)) (MM96L melanoma cells): 4.5
- IC50 [1, 14]: 1.15 µM

Compound: CN(C)c1ccc(C(=O)N[C@@H](CCCCCC(=O)NO)C(=O)NCc2ccccn2)cc1 [Example 127]
- IC50 (MM96L melanoma cells; [2]): 3.6 ± 0.4 µM
- SI (Selectivity Index = IC50 (NFF)/IC50 (MM96L)) (MM96L melanoma cells): 9.1
- IC50 [1, 3]: 33 ± 5 µM

Compound: O=C(CCCCC[C@H](NC(=O)OCC1c2ccccc2-c2ccccc21)C(=O)NCc1ccccc1)NO [Example 142]
- IC50 (MM96L melanoma cells; [2]): 3.2 µM
- SI (Selectivity Index = IC50 (NFF)/IC50 (MM96L)) (MM96L melanoma cells): 1.7
- IC50 [1, 3]: 5.37 µM

Compound: Cc1ccnc(NC(=O)[C@H](CSCCCC(=O)NO)NC(=O)c2ccc(N(C)C)cc2)c1 [Example 79]
- IC50 (MM96L melanoma cells; [10]): 1.12 ± 0.06 µM
- Selectivity (MM96L melanoma cells; [11]): 10.0
- IC50 [1, 12]: 11.2 ± 0.7 µM

Compound: CN(C)c1ccc(C(=O)N[C@@H](CSCCCC(=O)NO)C(=O)NCc2ccc(C(=O)Nc3ccccc3)cc2)cc1 [Example 121]
- IC50 (MM96L melanoma cells; [7]): 1.41 µM
- Selectivity (MM96L melanoma cells; [8]): 8.2
- IC50 [1, 9]: 11.6 µM

Compound: CN(C)c1ccc(C(=O)N[C@@H](CSCCCC(=O)NO)C(=O)NCc2cccc3ccccc23)cc1 [Example 75]
- IC50 (MM96L melanoma cells; [10]): 0.2 ± 0.02 µM
- Selectivity (MM96L melanoma cells; [11]): 2.1
- IC50 [1, 12]: 0.42 ± 0.05 µM

Compound: CN(C)c1ccc(C(=O)N[C@@H](CSCCCC(=O)NO)C(=O)Nc2ccccc2-c2ccccc2)cc1 [Example 62]
- IC50 (MM96L melanoma cells; [10]): 2.1 ± 0.2 µM
- Selectivity (MM96L melanoma cells; [11]): 2.1
- IC50 [1, 12]: 4.4 ± 0.6 µM

Compound: O=C(CCCCC[C@H](NC(=O)OCc1ccccc1)C(=O)NCc1ccncc1)NO [Example 159]
- IC50 (MM96L melanoma cells; [2]): 4.32 µM
- SI (Selectivity Index = IC50 (NFF)/IC50 (MM96L)) (MM96L melanoma cells): 5.4
- IC50 [1, 3]: 23.3 µM

Compound: O=C(CCCCC[C@H](NC(=O)c1cc2ccccc2[nH]1)C(=O)NC1(Cc2ccccc2)CCCC1)NO [Example 129]
- IC50 (MM96L melanoma cells; [2]): 0.9 ± 0.2 µM
- SI (Selectivity Index = IC50 (NFF)/IC50 (MM96L)) (MM96L melanoma cells): 1.7
- IC50 [1, 3]: 1.6 ± 0.2 µM

Compound: O=C(CCCCC[C@H](NC(=O)c1ccc([N+](=O)[O-])cc1)C(=O)NCc1ccccc1)NO (racemic) [Example 135]
- IC50 (MM96L melanoma cells; [2]): 6 ± 1 µM
- SI (Selectivity Index = IC50 (NFF)/IC50 (MM96L)) (MM96L melanoma cells): 1.5
- IC50 [1, 3]: 9 ± 2 µM

Compound: CN(C)c1ccc(C(=O)N[C@@H](CSCCCC(=O)NO)C(=O)NCCc2ccccc2)cc1 [Example 83]
- IC50 (MM96L melanoma cells; [15]): 1.4 ± 0.1 µM
- Selectivity (MM96L melanoma cells; [11]): 1.9
- IC50 [1, 16]: 2.7 ± 0.3 µM

Compound: CN(C)c1ccc(C(=O)N[C@@H](CSCCCC(=O)NO)C(=O)Nc2cccc3c2CCCC3)cc1 [Example 66]
- IC50 (MM96L melanoma cells; [10]): 0.5 ± 0.1 µM
- IC50 (MM96L melanoma cells; [17]): ≤ 0.5 µM
- Selectivity (MM96L melanoma cells; [11]): 4.4
- IC50 [1, 12]: 2.2 ± 0.3 µM

Compound: CN(C)c1ccc(C(=O)N[C@@H](CSCCCC(=O)NO)C(=O)Nc2cccc3cc4ccccc4cc23)cc1 [Example 71]
- IC50 (MM96L melanoma cells; [10]): 1.7 ± 0.3 µM
- Selectivity (MM96L melanoma cells; [11]): 1.3
- IC50 [1, 12]: 2.2 ± 0.3 µM

Compound: CN(C)c1ccc(C(=O)NC(CSCCCC(=O)NO)C(=O)NCc2ccc(C(=O)NC(c3ccccc3)C(O)c3ccccc3)cc2)cc1 (centres unmarked) [Example 112]
- IC50 (MM96L melanoma cells; [7]): 2.87 µM
- Selectivity (MM96L melanoma cells; [8]): 5.0
- IC50 [1, 9]: 14.3 µM

Compound: O=C(CCCSC[C@H](NC(=O)Cc1cccc([N+](=O)[O-])c1)C(=O)NCc1ccccc1)NO [Example 41]
- IC50 (MM96L melanoma cells; [4]): 12 ± 1 µM
- Selectivity (MM96L melanoma cells; [5]): >8
- IC50 [1, 6]: > 100 µM

Compound: CC(C)NC(=O)c1ccc(CNC(=O)[C@H](CSCCCC(=O)NO)NC(=O)c2ccc(N(C)C)cc2)cc1 [Example 103]
- IC50 (MM96L melanoma cells; [7]): 1.38 µM
- Selectivity (MM96L melanoma cells; [8]): 7.30
- IC50 [1, 9]: 10.1 µM

Compound: O=C(CCCSC[C@H](NC(=O)c1ccc(F)cc1Cl)C(=O)NCc1ccccc1)NO [Example 28]
- IC50 (MM96L melanoma cells; [4]): 28 ± 3 µM
- Selectivity (MM96L melanoma cells; [5]): >3
- IC50 [1, 6]: > 100 µM

Compound: O=C(/C=C/c1ccccc1)N[C@@H](CSCCCC(=O)NO)C(=O)NCc1ccncc1 [Example 100]
- IC50 (MM96L melanoma cells; Homo sapiens, MM96L, 24 h, Table 7, 24 hours with compound, further growth, SRB, read-out: IC50 (μM) MM96L): 0.34 ± 0.02 µM
- IC50 (MM96L melanoma cells; [17]): ≤ 0.5 µM
- Selectivity (MM96L melanoma cells; Table 7, IC50 (NFF)/IC50 (MM96L)): 4.8
- IC50 ([1]; Homo sapiens, Fibroblast, 24 h, Table 7, 24 hours with compound, further growth, read-out: IC50 (μM) NFF): 1.6 ± 0.2 µM

Compound: O=C(CCCCCC(NC(=O)OCc1ccccc1)C(=O)NC1CCCc2ccccc21)NO (centres unmarked) [Example 156]
- IC50 (MM96L melanoma cells; [13]): 1.71 µM
- SI (Selectivity Index = IC50 (NFF)/IC50 (MM96L)) (MM96L melanoma cells): 1
- IC50 [1, 14]: 1.71 µM

Compound: CN(C)c1ccc(C(=O)N[C@@H](CSCCCC(=O)NO)C(=O)NCCc2ccccc2Br)cc1 [Example 84]
- IC50 (MM96L melanoma cells; [15]): 0.7 ± 0.2 µM
- Selectivity (MM96L melanoma cells; [11]): 4.7
- IC50 [1, 16]: 3.3 ± 0.3 µM

Compound: O=C(CCCSC[C@H](NC(=O)CCc1ccccc1)C(=O)NCc1ccccc1)NO [Example 46]
- IC50 (MM96L melanoma cells; [4]): 7.4 ± 0.5 µM
- Selectivity (MM96L melanoma cells; [5]): 2.9
- IC50 [1, 6]: 21 ± 3 µM

Compound: CC(C)CCNC(=O)C(CCCCCC(=O)NO)NC(=O)c1ccco1 (racemic) [Example 144]
- IC50 (MM96L melanoma cells; [13]): 1.5 ± 0.2 µM
- SI (Selectivity Index = IC50 (NFF)/IC50 (MM96L)) (MM96L melanoma cells): 2.9
- IC50 [1, 14]: 4.4 ± 0.5 µM

Compound: O=C(CCCCC[C@H](NC(=O)c1ccc(C(F)(F)F)cc1)C(=O)Nc1cccc2cccnc12)NO [Example 147]
- IC50 (MM96L melanoma cells; [2]): 0.258 µM
- SI (Selectivity Index = IC50 (NFF)/IC50 (MM96L)) (MM96L melanoma cells): 2.7
- IC50 [1, 3]: 0.696 µM
